# Assay results reported in publication PMC11653257, “Organometallic Half-Sandwich Complexes of 8-Hydroxyquinoline-Derived Mannich Bases with Enhanced Solubility: Targeting Multidrug Resistant Cancer” (Inorganic Chemistry, 2024).
# Read-outs that look alike come from different tables or passages of the source.
# Experiments:
# A431-B1 = tested on: A431-B1; parameters: method as in earlier work; conditions: monoculture, ref SI3, cited from earlier work
# MES-SA [1] = conditions: monoculture, PrestoBlue; ref SI2; cited from earlier work
# MES-SA [2] = assay: Cytotoxicity in double coculture, MES-SA mCherry; conditions: Homo sapiens, MES-SA, 144 h, read-out: IC50 MES-SA
# MES-SA/Dx5 [3] = conditions: monoculture, ref SI2, cited from earlier work
# [4] = pH 7.4; cited from earlier work
# A431 = tested on: A431; parameters: method as in earlier work; conditions: monoculture, 72 h, PrestoBlue; ref SI3; cited from earlier work
# MES-SA/Dx5 [5] = assay: Cytotoxicity in double coculture, MES-SA/Dx5 eGFP; conditions: for IC50: Homo sapiens, MES-SA/Dx5, 144 h, read-out: IC50 MES-SA/Dx5; for SR = IC50 (MES-SA)/IC50 (MES-SA/Dx5): double coculture
# Experimental: Therefore, the novel half-sandwich complexes (1–4) and their corresponding ligands were tested against a coculture of MES-SA and MES-SA/Dx5 cells expressing the fluorescent proteins mCherry or eGFP, respectively.[62]
# The tested compounds were dissolved in 50% (v/v) DMSO/PBS’ buffer to prepare 5–10 mM stock solutions, which were diluted in complete culture medium. Constitutive expression of the fluorescent proteins allowed multiplexing in cytotoxicity experiments.[62] […] Serial dilutions of the compounds were added 24 h after seeding. To address the effect of P-gp function, TQ was added at a nontoxic concentration (0.4 μM) 15 min before the test compounds. […] IC50 values and standard deviation were calculated from average pIC50 values from at least 3 independent measurements.
# Colo205 = assay: Cytotoxicity, Colo205; format: cell-based; conditions: Homo sapiens, COLO 205; 72 h incubation; this work
# Description: (§1) Supplementary Information
# (§2) (11 pictures or pasted objects on this page, not shown here)
# MES-SA [6] = assay: Cytotoxicity in triple coculture, MES-SA mCherry; format: cell-based, human; conditions: Homo sapiens, MES-SA/B1, MES-SA/Dx5, 144 h
# Experimental: (§3) Cell lines were purchased from the American Type Culture Collection (ATCC). MES-SA/B1 is a human MDR1-transfected derivative of MES-SA, and MES-SA mCherry, MES-SA/B1 mOrange, and MES-SA/Dx5 eGFP were engineered to stably express the respective fluorescent proteins previously.[62] Cells were kept in culture medium (DMEM) supplemented with 10% fetal bovine serum, 2 mM L-glutamine, 100 units/mL penicillin, and 100 μg/mL streptomycin (Thermo Fisher). One week before use, MES-SA/Dx5 eGFP cells were treated with 0.5 μM doxorubicin to ensure ABCB1/P-gp expression.
# (§4) The tested compounds were dissolved in 50% (v/v) DMSO/PBS’ buffer to prepare 5–10 mM stock solutions, which were diluted in complete culture medium. Constitutive expression of the fluorescent proteins allowed multiplexing in cytotoxicity experiments.[62] Cells were mixed before seeding in 384-well plates: in double cocultures, MES-SA mCherry and MES-SA/Dx5 eGFP cells were seeded at 1250–1250 cells/well (in total 2500 cells/well); while in triple cocultures, MES-SA mCherry, MES-SA/Dx5 eGFP and MES-SA/B1 mOrange cells were seeded at 800–800–800 cells/well (in total 2400 cells/well). Serial dilutions of the compounds were added 24 h after seeding. To address the effect of P-gp function, TQ was added at a nontoxic concentration (0.4 μM) 15 min before the test compounds. The intensity of the fluorescent proteins, which is proportional to cell mass, was measured after 144 h of incubation at the respective fluorescent channels (excitation/emission: eGFP: 485 nm/510 nm; mOrange: 545 nm/567 nm; mCherry: 585 nm/610 nm). pIC50 values were calculated by a custom program written by Judit Sessler in C#.[62] IC50 values and standard deviation were calculated from average pIC50 values from at least 3 independent measurements.
# MES-SA/Dx5 [7] = assay: Cytotoxicity in triple coculture, MES-SA/Dx5 eGFP; format: cell-based, human
# Experimental: as §3, §4
# Colo320 = assay: Cytotoxicity, Colo320; format: cell-based, human; conditions: this work
# Description: as §1, §2
Structure (SMILES),"IC50 (A431-B1; 72 h, PrestoBlue) [µM]",SR (A431 / A431-B1) (A431-B1),IC50 (MES-SA [1]) [µM],IC50 (MES-SA [2]) [µM],IC50 (MES-SA/Dx5 [3]; PrestoBlue) [µM],SR (MES-SA / MES-SA/Dx5) (MES-SA/Dx5 [3]; + 1 µM TQ),SR (MES-SA / MES-SA/Dx5) (MES-SA/Dx5 [3]),log D7.4 [4],IC50 (A431) [µM],IC50 (MES-SA/Dx5 [5]) [µM],SR = IC50 (MES-SA)/IC50 (MES-SA/Dx5) (MES-SA/Dx5 [5]; + 0.4 μM tariquidar (TQ)),SR = IC50 (MES-SA)/IC50 (MES-SA/Dx5) (MES-SA/Dx5 [5]; without TQ),IC50 (Colo205) [µM],IC50 (MES-SA [6]) [µM],SR Dx5 = IC50 (MES-SA)/IC50 (MES-SA/Dx5) (MES-SA/Dx5 [7]),"IC50 (MES-SA/Dx5 [7]; Homo sapiens, MES-SA/Dx5, 144 h) [µM]","IC50 (Colo320; Homo sapiens, COLO 320, 72 h incubation) [µM]",SR (Colo205 / Colo320) (Colo320)
"Oc1c(CN2CCCCC2)ccc2cccnc12 [PHQ, 7-(1-piperidinylmethyl)quinolin-8-ol, reference compound]",2.48 ± 0.7,4.09,3.63 ± 0.58,3.8,0.62 ± 0.03,0.92,5.85,+0.93,10.1 ± 2.95,0.49,1.8,7.8,–,–,–,–,–,–
"COc1cccc2c1C(=O)c1c(O)c3c(c(O)c1C2=O)C[C@@](O)(C(=O)CO)C[C@@H]3O[C@H]1C[C@H](N)[C@H](O)[C@H](C)O1 [doxorubicin, reference compound]",–,–,–,0.03,–,–,–,–,–,2.62,1.3,0.01,0.05 ± 0.01,0.03,0.03,1.07,0.19 ± 0.02,0.3
